Experimental data: US10858335B2 (Rigel Pharmaceuticals, Inc., priority 2014, dated 2020)
Where a name gives a salt, the structure may show the parent alone.

The molecules below were run on GDF8 signaling (p-SMAD-3 (Ser423/425)) (assay: AlphaScreen SureFire SMAD3 (p-Ser423/425) assay, GDF8-stimulated cells (GDF pSMAD)). Details: Mus musculus, MPC-11, GDF8-stimulated pSMAD3, MPC11; tested as the salt form given; read-out: GDF pSMAD (MPC11) (μM), inhibition of GDF8 signaling.
Assay type: cell-based

| IC50 [µM] | SMILES |
| --- | --- |
| 0.577 | Cc1ccc(C(F)F)cc1-c1ncccc1-c1ccc2ncnc(N)c2c1 [compound 1024, 6-(2-(5-(difluoromethyl)-2-methylphenyl)pyridin-3-yl)quinazolin-4-amine] |
| 0.0438 | Nc1ncnc2ccc(-c3cccnc3-c3cc(Cl)ccc3F)nc12 [compound 1039] |
| 15.8 | O=C(O)CNc1ncnc2ccc(-c3cccnc3-c3cc(Cl)ccc3F)cc12 [compound 1031, (6-(2-(5-chloro-2-fluorophenyl)pyridin-3-yl)quinazolin-4-yl)glycine] |

Same assay, conditions: Mus musculus, MPC-11, MPC11; GDF8-stimulated; p-SMAD3 AlphaScreen; read-out: GDF pSMAD (MPC11) (inhibition of GDF8 signaling)

| SMILES | IC50 [µM] |
| --- | --- |
| Fc1cccc(-c2ncccc2-c2ccc3[nH]ncc3c2)c1 [Compound 65, 5-[2-(3-Fluorophenyl)pyridin-3-yl]-1H-indazole] | 2.24 |
| Cc1cc(-c2ncc(NCc3cccc(N4CCOCC4)c3)cc2-c2ccc3ncsc3c2)ccc1F [compound 354, 5-(Benzo[d]thiazol-6-yl)-6-(4-fluoro-3-methylphenyl)-N-(3-morpholinobenzyl)pyridin-3-amine] | 1.27 |
| NC(=O)c1ccnc2ccc(-c3cccnc3-c3cccc(Cl)c3)cc12 [compound 848, 6-(2-(3-Chlorophenyl)pyridin-3-yl)quinoline-4-carboxamide] | 11.1 |
| Cc1cc(-c2ncccc2-c2ccc3ncnc(Oc4ccc(C#N)cc4)c3c2)ccc1F [compound 440, 4-((6-(2-(4-Fluoro-3-methylphenyl)pyridin-3-yl)quinazolin-4-yl)oxy)benzonitrile] | 1.86 |
| CC(=O)NCCNC(=O)c1cnc2ccc(-c3cccnc3-c3ccc(F)c(C)c3)cn12 [compound 815, N-(2-Acetamidoethyl)-6-(2-(4-fluoro-3-methylphenyl)pyridin-3-yl)imidazo[1,2-a]pyridine-3-carboxamide] | 0.941 |
| N#Cc1cnc2ccc(-c3cccnc3-c3ccc(F)c(Cl)c3)nn12 [compound 948, 6-(2-(3-Chloro-4-fluorophenyl)pyridin-3-yl)imidazo[1,2-b]pyridazine-3-carbonitrile] | 0.951 |
| CCCCNc1ncnc2ccc(-c3cccnc3-c3ccc(F)c(C)c3)cc12 [compound 403, N-Butyl-6-(2-(4-fluoro-3-methylphenyl)pyridin-3-yl)quinazolin-4-amine] | 1.67 |
| Fc1ccc(-c2ncccc2-c2ccc3ncccc3c2)cc1Cl [compound 688, 6-(2-(3-Chloro-4-fluorophenyl)pyridin-3-yl)quinoline] | 1.26 |
| Cc1cc(-c2ncc(NCc3ccc(N4CCN(C)CC4)cc3)cc2-c2ccc3ncsc3c2)ccc1F [compound 373, 5-(Benzo[d]thiazol-6-yl)-6-(4-fluoro-3-methylphenyl)-N-(4-(4-methylpiperazin-1-yl)benzyl)pyridin-3-amine] | 1.2 |
| Cc1cc(-c2ncccc2-c2ccc3c(cnn3C(=O)NCCCN)c2)ccc1F [compound 640, N-(3-Aminopropyl)-5-(2-(4-fluoro-3-methylphenyl)pyridin-3-yl)-1H-indazole-1-carboxamide] | 19.2 |
| Cc1cc(-c2ncccc2-c2ccnc(Nc3cccc(N4CCOCC4)c3)n2)ccc1F [compound 905, 4-(2-(4-Fluoro-3-methylphenyl)pyridin-3-yl)-N-(3-morpholinophenyl)pyrimidin-2-amine] | 1.49 |
| CN(C)CCOc1ncnc2ccc(-c3cccnc3-c3ccc(F)c(Cl)c3)cc12 [compound 439, 2-((6-(2-(3-Chloro-4-fluorophenyl)pyridin-3-yl)quinazolin-4-yl)oxy)-N,N-dimethylethan-1-amine] | 0.738 |
| Cc1cc(-c2ncccc2-c2ccc3cncn3c2)ccc1F [compound 269, 6-(2-(4-Fluoro-3-methylphenyl)pyridin-3-yl)imidazo[1,5-a]pyridine] | 1.38 |
| CC(=O)Nc1cccc(-c2ncccc2-c2ccc3ncn(C)c(=O)c3c2)c1 [compound 380, N-(3-(3-(3-Methyl-4-oxo-3,4-dihydroquinazolin-6-yl)pyridin-2-yl)phenyl)acetamide] | 18.5 |

Second part, the molecule after the results:

| IC50 [µM] | SMILES |
| --- | --- |
| 0.208 | c1cc(-c2ncccc2-c2ccc3[nH]ncc3c2)cc(C2CC2)c1 [Compound 150, 5-(2-(3-Cyclopropylphenyl)pyridin-3-yl)-1H-indazole] |
| 0.524 | Cc1cc(-c2ncc(NCc3ccc(S(N)(=O)=O)cc3)cc2-c2ccc3ncsc3c2)ccc1F [compound 359, 4-(((5-(Benzo[d]thiazol-6-yl)-6-(4-fluoro-3-methylphenyl)pyridin-3-yl)amino)methyl)benzenesulfonamide] |
| 0.152 | COc1ncnc2ccc(-c3cccnc3-c3ccc(F)c(C)c3)cc12 [compound 375, 6-(2-(4-Fluoro-3-methylphenyl)pyridin-3-yl)-4-methoxyquinazoline] |
| 0.73 | FC(F)(F)Oc1cccc(-c2ncccc2-c2ccc3ncnn3c2)c1 [compound 780, 6-(2-(3-(Trifluoromethoxy)phenyl)pyridin-3-yl)-[1,2,4]triazolo[1,5-a]pyridine] |
| 0.285 | Cc1cc(-c2ncccc2-c2ccc3ncnc(OCCN4CCN(C)CC4)c3c2)ccc1F [compound 433, 6-(2-(4-Fluoro-3-methylphenyl)pyridin-3-yl)-4-(2-(4-methylpiperazin-1-yl)ethoxy)quinazoline] |
| 0.132 | Cc1cc(-c2ncccc2-c2ccc3c(cnn3C(=O)OC[C@H](N)Cc3c[nH]c4ccccc34)c2)ccc1F [compound 629, (R)-2-Amino-3-(1H-indol-3-yl)propyl 5-(2-(4-fluoro-3-methylphenyl)pyridin-3-yl)-1H-indazole-1-carboxylate TFA salt] |
| 0.332 | Fc1ccc(-c2ncccc2-c2ccc3nc[nH]c3c2)cc1Cl [compound 782, 6-(2-(3-Chloro-4-fluorophenyl)pyridin-3-yl)-1H-benzo[d]imidazole] |
| 0.228 | Cn1cnc2ccc(-c3cccnc3-c3cccc(Cl)c3)cc2c1=O [compound 391, 6-(2-(3-Chlorophenyl)pyridin-3-yl)-3-methylquinazolin-4(3H)-one] |
| 0.673 | Cc1cc(-c2ncccc2-c2ccc3ncnc(Nc4ccc(N5CCOCC5)cc4)c3c2)ccc1F [compound 408, 6-(2-(4-Fluoro-3-methylphenyl)pyridin-3-yl)-N-(4-morpholinophenyl)quinazolin-4-amine] |
| 0.153 | Cn1cnc2ccc(-c3cccnc3-c3cccc(Cl)c3)cc21 [compound 769, 6-(2-(3-Chlorophenyl)pyridin-3-yl)-1-methyl-1H-benzo[d]imidazole] |
| 0.628 | Cc1cc(-c2ncccc2-c2ccc3ncnc(NCCCN(C)C)c3c2)ccc1F [compound 423, N1-(6-(2-(4-Fluoro-3-methylphenyl)pyridin-3-yl)quinazolin-4-yl)-N3,N3-dimethylpropane-1,3-diamine] |
| 0.376 | Cc1cc(-c2ncc(NCc3ccc(O)cc3)cc2-c2ccc3ncsc3c2)ccc1F [compound 333, 4-(((5-(Benzo[d]thiazol-6-yl)-6-(4-fluoro-3-methylphenyl)pyridin-3-yl)amino)methyl)phenol] |
| 0.504 | Cc1cc(-c2ncccc2-c2ccc3ncccc3n2)ccc1F [compound 535, 2-(2-(4-Fluoro-3-methylphenyl)pyridin-3-yl)-1,5-naphthyridine] |
| 0.205 | Fc1ccc(-c2ncccc2-c2ccc3ncsc3c2)cc1Cl [compound 686, 6-(2-(3-Chloro-4-fluorophenyl)pyridin-3-yl)benzo[d]thiazole] |
